In ChEMBL document CHEMBL4196026, “Novel Tacrine-Hydroxyphenylbenzimidazole hybrids as potential multitarget drug candidates for Alzheimer's disease” (Eur J Med Chem, 2018):
Calls of active or inactive are those of the source. The rule behind the calls is not given here.

Tests used:
Acetylcholinesterase = Acetylcholinesterase (Electrophorus electricus, UniProt O42275); test: Inhibition of electric eel AChE using acetylthiocholine iodide as substrate preincubated for 15 mins followed by addition of substrate measured after 5 mins
Acetylcholinesterase, sequence (O42275 whole entry): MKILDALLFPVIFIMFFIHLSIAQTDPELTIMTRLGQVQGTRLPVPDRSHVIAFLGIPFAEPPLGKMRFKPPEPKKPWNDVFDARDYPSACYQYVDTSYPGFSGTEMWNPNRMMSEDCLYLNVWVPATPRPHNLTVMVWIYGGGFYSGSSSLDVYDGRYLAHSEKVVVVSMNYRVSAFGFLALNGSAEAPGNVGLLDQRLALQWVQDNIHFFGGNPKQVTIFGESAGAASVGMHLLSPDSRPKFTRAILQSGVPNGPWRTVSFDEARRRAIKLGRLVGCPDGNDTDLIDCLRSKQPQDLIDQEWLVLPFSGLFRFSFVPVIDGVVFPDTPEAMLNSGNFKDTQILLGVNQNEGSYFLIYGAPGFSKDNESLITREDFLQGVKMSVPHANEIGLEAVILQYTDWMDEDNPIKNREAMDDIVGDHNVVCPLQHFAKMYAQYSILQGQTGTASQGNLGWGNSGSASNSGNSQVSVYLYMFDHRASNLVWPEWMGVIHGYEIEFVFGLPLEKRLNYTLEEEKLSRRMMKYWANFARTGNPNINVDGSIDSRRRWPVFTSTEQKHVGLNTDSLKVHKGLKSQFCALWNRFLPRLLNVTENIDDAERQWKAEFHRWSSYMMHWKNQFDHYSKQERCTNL

SH-SY5Y [1] = test: Cytotoxicity against human SH-SY5Y cells assessed as reduction in cell viability at 1 uM after 24 hrs MTT assay; assay type: cell-based
SH-SY5Y [2] = test: Neuroprotection against amyloid beta (1 to 42)-induced toxicity in human SH-SY5Y cells assessed as increase in cell viability at 1 uM preincubated for 1 hr followed by amyloid beta (1 to 42) addition and measured after 24 hrs MTT assay; assay type: functional, cell-based
SH-SY5Y [3] = test: Neuroprotection against Fe/LAscH(-)-induced toxicity in human SH-SY5Y cells assessed as increase in cell viability at 1 uM preincubated for 1 hr followed by Fe/LAscH(-) addition and measured after 24 hrs MTT assay; assay type: functional, cell-based
[4] = Copper chelating activity assessed as inhibition of Cu2+-induced amyloid beta (1 to 42) aggregation at 80 uM measured after 24 hrs by ThT fluorescence assay relative to control
[5] = biological target: Amyloid-beta precursor protein (Homo sapiens) (UniProt P05067); test: Inhibition of self-induced amyloid beta (1 to 42) (unknown origin) aggregation at 40 uM measured after 24 hrs by ThT fluorescence assay relative to control
Amyloid-beta precursor protein (Homo sapiens), sequence (P05067 whole entry): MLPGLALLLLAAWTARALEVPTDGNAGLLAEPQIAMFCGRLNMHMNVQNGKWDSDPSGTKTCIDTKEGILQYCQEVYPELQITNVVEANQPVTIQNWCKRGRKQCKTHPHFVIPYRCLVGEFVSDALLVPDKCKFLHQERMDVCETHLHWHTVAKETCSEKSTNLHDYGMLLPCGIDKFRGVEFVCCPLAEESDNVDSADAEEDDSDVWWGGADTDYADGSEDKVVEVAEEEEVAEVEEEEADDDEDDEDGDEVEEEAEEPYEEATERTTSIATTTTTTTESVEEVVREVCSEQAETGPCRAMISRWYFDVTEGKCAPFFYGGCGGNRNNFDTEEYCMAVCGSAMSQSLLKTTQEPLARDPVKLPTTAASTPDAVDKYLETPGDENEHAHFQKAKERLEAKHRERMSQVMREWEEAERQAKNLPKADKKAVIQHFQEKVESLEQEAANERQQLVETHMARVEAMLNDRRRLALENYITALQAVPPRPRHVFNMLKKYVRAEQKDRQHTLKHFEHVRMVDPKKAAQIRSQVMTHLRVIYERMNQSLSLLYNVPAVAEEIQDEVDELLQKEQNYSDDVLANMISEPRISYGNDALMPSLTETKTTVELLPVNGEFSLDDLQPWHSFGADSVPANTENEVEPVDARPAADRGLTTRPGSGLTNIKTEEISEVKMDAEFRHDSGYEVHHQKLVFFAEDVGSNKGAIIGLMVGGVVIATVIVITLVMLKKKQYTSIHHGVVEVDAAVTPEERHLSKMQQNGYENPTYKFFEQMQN

[6] = Copper chelating activity assessed as inhibition of Cu2+-induced amyloid beta (1 to 42) aggregation at 40 uM measured after 24 hrs by ThT fluorescence assay relative to control
[7] = biological target: Amyloid-beta precursor protein (Homo sapiens) (UniProt P05067); test: Inhibition of self-induced amyloid beta (1 to 42) (unknown origin) aggregation at 50 uM measured after 24 hrs by uranyl acetate staining based TEM analysis
[8] = Copper chelating activity assessed as inhibition of Cu2+-induced amyloid beta (1 to 42) aggregation at 50 uM measured after 24 hrs by uranyl acetate staining based TEM analysis
[9] = Metal chelating activity assessed as compound-Cu2+ complex formation at pH 7.4
SH-SY5Y [10] = test: Cytotoxicity against human SH-SY5Y cells assessed as reduction in cell viability at 0.1 uM after 24 hrs MTT assay; assay type: cell-based
SH-SY5Y [11] = test: Neuroprotection against amyloid beta (1 to 42)-induced toxicity in human SH-SY5Y cells assessed as increase in cell viability at 0.1 uM preincubated for 1 hr followed by amyloid beta (1 to 42) addition and measured after 24 hrs MTT assay; assay type: functional, cell-based
SH-SY5Y [12] = test: Neuroprotection against Fe/LAscH(-)-induced toxicity in human SH-SY5Y cells assessed as increase in cell viability at 0.1 uM preincubated for 1 hr followed by Fe/LAscH(-) addition and measured after 24 hrs MTT assay; assay type: functional, cell-based
SH-SY5Y [13] = test: Cytotoxicity against human SH-SY5Y cells assessed as reduction in cell viability at 2.5 uM after 24 hrs MTT assay; assay type: cell-based
SH-SY5Y [14] = test: Neuroprotection against amyloid beta (1 to 42)-induced toxicity in human SH-SY5Y cells assessed as increase in cell viability at 2.5 uM preincubated for 1 hr followed by amyloid beta (1 to 42) addition and measured after 24 hrs MTT assay; assay type: functional, cell-based
SH-SY5Y [15] = test: Neuroprotection against Fe/LAscH(-)-induced toxicity in human SH-SY5Y cells assessed as increase in cell viability at 2.5 uM preincubated for 1 hr followed by Fe/LAscH(-) addition and measured after 24 hrs MTT assay; assay type: functional, cell-based

Oc1ccccc1-c1nc2ccccc2[nH]1
IC50 (Acetylcholinesterase): Not Active

O=C(NCCCCNc1c2c(nc3cc(Cl)ccc13)CCCC2)c1ccc2[nH]c(-c3ccccc3O)nc2c1
IC50 (Acetylcholinesterase; read-out: IC50): 142 nM
Activity (SH-SY5Y [1]): Non-Toxic
Activity (SH-SY5Y [2]): Active
Activity (SH-SY5Y [3]): Active

O=C(NCCCCNc1c2c(nc3ccccc13)CCCC2)c1ccc2[nH]c(-c3ccccc3O)nc2c1
IC50 (Acetylcholinesterase; read-out: IC50): 208 nM
inhibition [4]: 65.5%

O=C(NCCNc1c2c(nc3cc(Cl)ccc13)CCCC2)c1ccc2[nH]c(-c3ccccc3O)nc2c1
IC50 (Acetylcholinesterase; read-out: IC50): 6.3 nM
inhibition [5]: 21.9%
inhibition [6]: 20.9%
Activity (SH-SY5Y [1]): Non-Toxic
Activity (SH-SY5Y [2]): inactive
Activity (SH-SY5Y [3]): Active

O=C(NCCCNc1c2c(nc3ccccc13)CCCC2)c1ccc2[nH]c(-c3ccccc3O)nc2c1
IC50 (Acetylcholinesterase; read-out: IC50): 30.9 nM
inhibition [4]: 77.3%
inhibition [7]: Active
inhibition [8]: Active

O=C(NCCNc1c2c(nc3ccccc13)CCCC2)c1ccc2[nH]c(-c3ccccc3O)nc2c1
IC50 (Acetylcholinesterase; read-out: IC50): 36.4 nM
inhibition [4]: 49.4%

O=C(NCCCNc1c2c(nc3cc(Cl)ccc13)CCCC2)c1ccc2[nH]c(-c3ccccc3O)nc2c1
IC50 (Acetylcholinesterase; read-out: IC50): 23.7 nM
inhibition [4]: 55.8%
Kd [9]: 0.01 nM
Activity (SH-SY5Y [10]): Non-Toxic
Activity (SH-SY5Y [11]): Active
Activity (SH-SY5Y [12]): Active

O=C(NCC(O)CNc1c2c(nc3ccccc13)CCCC2)c1ccc2[nH]c(-c3ccccc3O)nc2c1 (centres undefined)
IC50 (Acetylcholinesterase; read-out: IC50): 16.8 nM
inhibition [4]: 59.5%
Activity (SH-SY5Y [13]): Non-Toxic
Activity (SH-SY5Y [14]): Active
Activity (SH-SY5Y [15]): Active

O=C(NCC(O)CNc1c2c(nc3cc(Cl)ccc13)CCCC2)c1ccc2[nH]c(-c3ccccc3O)nc2c1 (centres undefined)
IC50 (Acetylcholinesterase; read-out: IC50): 18.1 nM
Activity (SH-SY5Y [1]): Non-Toxic
Activity (SH-SY5Y [2]): Active
Activity (SH-SY5Y [3]): Active
